These results are taken from a melting point compilation (Tetko et al.; mined from patent text by program, amines drawn as free bases though some values may be those of a salt).

The structures appear in SMILES notation.

As for `N#Cc1cc(NC(=O)c2cccn2-c2ccc(F)cc2)ccc1N1CCN(CCO)CC1`, the melting point lay within 170 to 171 °C.

As to `CCOC(=O)C1C(=O)NC(=O)CC1c1ccc(F)cc1` (stereo not drawn), the melting point fell in the range of 97 to 99 °C. In turn, `CC(=NO)c1nc(-c2cccnc2)[nH]c1C` gave a melting point of 215 to 216 °C. In turn, `COc1ccc(NC(=O)/C=C/c2ccc(C(C)(C)C)cc2)cc1OC` registered a melting point of 115 to 116 °C.

In turn, `CCOC(=O)c1ncc2[nH]c3ccc(NC(C)=O)cc3c2c1C` returned a melting point of 273 to 278 °C. `CC(C)CCC(=O)N[C@@H](CC(C)C)C(=O)N[C@@H](C(C)C)[C@@H](O)c1c(-c2ccccc2)c1=O` displayed a melting point of 148 to 151 °C. The value for `Cc1c(Cc2cccc(C(F)(F)F)c2)oc2cccc(-c3cccc(C(=O)NCCO)c3)c12` was 139 to 141 °C; that for `CC(=O)n1nc(CN2CCc3ccccc3C2)c2ccc(F)cc21` was 106 to 107 °C; that for `C(=Cc1cnc2[nH]c3ccccc3c2c1)c1ccccc1` was greater than 220 °C.

With `CCc1cc(O)c(C(=O)CCc2ccc3occc3c2)c(OC2OC(CO)C(O)C(O)C2O)c1` (stereo not drawn), the melting point was in the range of 146 to 148 °C. Consider `COC(=O)C1Cc2ccccc2CC(C(=O)OC)C1=O` (stereo not drawn), for which the melting point lay in the range of 100 to 110 °C.

For `CCC(=O)N1C(=O)C2C=CC1C2` (stereo not drawn), the melting point lay in the range of 54 to 56 °C.

In turn, `CCOCc1nc2cnc3ccc(OCc4ccccc4)cc3c2n1CC(C)(C)O` showed a melting point of 138 to 140 °C. `O=C(c1ccc(O)cc1)c1c(Cc2ccccc2)oc2ccccc12` displayed a melting point of 146 to 149 °C. `Nc1c(Cl)ccc2c1C(=O)CO2`: the melting point was 160 °C. The value for `CCOc1cccnc1CSCCN=C(NC)NC#N` was 126 to 128 °C. The value for `NC(=O)Cc1ccc2c(c1)CCc1ccccc1C2=O` was 174 °C; that for `Nc1ccc(Nc2c(CC3CC4C=CC3C4)cc(C(=O)O)cc2S(N)(=O)=O)cc1` (stereo not drawn) was 245 °C. As for `O=C1CC(C(=O)NC(Cc2ccc(C(F)(F)F)cc2)C(O)c2ccc(F)cc2)c2ccccc21` (racemic), the melting point was 237 to 238 °C. In turn, `CCOC(=O)C(=O)Nc1nnc2c3c(c(N4CCCCC4)nn12)CCCC3` yielded a melting point of 168 to 169 °C. The compound `Nc1cc(Cl)c(Oc2ccc(S(=O)(=O)c3ccc(Cl)cc3)cc2)c(Cl)c1` yielded a melting point of 186 to 187 °C. `CCOP(=O)(COCC(CO)On1cnc2c(=O)[nH]c(N)nc21)OCC` (stereo not drawn): the melting point fell in the range of 238 to 240 °C.

The compound `CN(C)C1(c2ccccc2)CCC(CNC(=O)NCCCc2ccccc2)CC1` (stereo not drawn) came in with a melting point of 100 to 110 °C. Consider `CCOC(=O)c1nc(/C=C/c2ccccc2)ns1`, for which the melting point is 79 to 80 °C.

Compound `O=NN(CCCl)C(=O)NCc1ccccn1` displayed a melting point of 70 °C. As for `Cc1nc2c3c(ccc2n1C)CCC(c1ccccc1)O3` (stereo not drawn), the melting point was 161 to 164 °C.

Regarding `C=CC(=O)Nc1cc2c(N(C(C)=O)c3ccc(F)c(Cl)c3)ncnc2cc1OCCCN1CCOCC1`, the melting point was found to be 143 °C.

Compound `CN(C1CCN(CCCC(F)(F)F)CC1)S(=O)(=O)c1ccc(Nc2nccc(Nc3ccc(F)c(F)c3)n2)cc1` had a melting point of 192 °C. `COC(C)(C)[C@H]1CCCN1NC(=O)Nc1cccc2c1C(=O)c1c-2n[nH]c1-c1ccc(N2CCNCC2)cc1`: the melting point was found to be 218 °C. The compound `O=C1c2ccccc2C(=O)N1OCc1cnn(C(c2ccccc2)(c2ccccc2)c2ccccc2)c1` had a melting point of 186 to 188 °C. In turn, `CC(C)(C)c1cc2c(=O)[nH]cnc2o1` returned a melting point of 198 to 200 °C. `N#Cc1ccc(N2CCOCC2)c(NC(N)=S)c1` returned a melting point of 193 to 194 °C. On to `Cc1ccc(NC(=O)c2cc(Cl)cc(C)n2)nc1`, for which the melting point was determined as 159 °C. The value for `CN(C)CCC(=O)N1Cc2cccc3c2N(CC3)c2ccccc21` was 91 to 92.5 °C.

`CN(c1ccccc1)[C@@H]1C=Cc2ccccc2[C@H]1O`: the melting point was 127 to 129 °C. The result for `CCn1c2ccccc2c2cc(NC(=O)OC)ncc21` reads 213 to 214 °C; that for `COc1cc(-n2cc[nH]c2=O)c(Cl)cc1Cn1nc(-c2ccc(C(F)(F)F)cc2)oc1=O`, 201 to 202 °C. Compound `N#Cc1ccc(COc2cccc(OCc3ccc4ccccc4n3)c2)cc1` displayed a melting point of 112 °C.

For `CSc1ccc(C2=C(c3ccc(F)cc3)C(=O)OC2)c(F)c1`, the melting point was in the range of 118 to 122 °C. As to `C#CCCCCCCCCCCCCCCCCCCCC(=O)OC(C)(C)C`, the melting point was 44 to 45 °C.

Compound `COc1ccc(S(=O)(=O)N2C(=O)C(OC(=O)Oc3ccccc3)(c3ccccc3Cl)c3cc(Cl)c(OC)cc32)c(OC)c1` (stereo not drawn) showed a melting point of 162 to 163 °C.

`C#Cc1ncn2c1[C@@H]1CCCN1C(=O)c1c(Cl)cccc1-2` had a melting point of 324 to 325 °C. In the case of `CCNC(=O)c1c(C2CC2)nc(CC)n1Cc1ccc2oc(-c3ccccc3C(=O)O)c(Br)c2c1`, the melting point fell in the range of 182 to 184 °C.

In turn, `COc1ccc(NC(=O)c2ccccc2O)cc1` gave a melting point of 162 to 163 °C. `CCCc1nn(C)c2c(=O)n(CCOc3cccc(OC(C)(C)C(=O)O)c3)c(C)nc12` yielded a melting point of 140 to 142 °C.

For `Nc1c(-c2ccc(Br)cc2)nc2ccc(Cl)cc2c1C(=O)O`, the melting point fell in the range of 241 to 242 °C.

On to `CON1CCC2(CC1)NC(=O)C(F)(c1cc(C)ccc1C)C2=O` (stereo not drawn), for which the melting point fell in the range of 127 to 130 °C. On to `COc1ccc2c(c1)CC(=O)C2`, for which the melting point was 74 to 78 °C. The result for `O=S(=O)(Cc1n[nH]c(-c2ccccc2)n1)c1ccccc1` reads 141 to 144 °C. Consider `O=C(Oc1ccc2cc(CN3CCCC3)ccc2c1)N1CCC(c2ccc(F)cc2)CC1`, for which the melting point was 106 to 108 °C.

Compound `Clc1ccc(N2CC3CCC(C2)N3Cc2ccccc2)cc1` gave a melting point of 115 to 117 °C.

With `CC(=O)O/N=C(\C)[C@H]1CC[C@H]2[C@@H]3CCC4=CC(=O)CC[C@]4(C)[C@H]3CC[C@]12C`, the melting point was in the range of 158 to 160 °C. As for `CCc1nc2c(cnn2CC)c(NC2CCOCC2)c1CNC(=O)c1cc(C)cc(C(=O)O)c1`, the melting point was 236 to 239 °C. In turn, `Nc1ccc2nc(N3CCOCC3)nn2c1` yielded a melting point of 165 °C. With `CC(=O)Nc1ccc2nc3ccccc3c(-c3cc(C)ccc3C)c2c1`, the melting point lay in the range of 236 to 238 °C.

Consider `COC(=O)c1cccc(CN2CCN(c3nc(C)c(C(=O)NCc4ccccc4)s3)C2=O)c1`, for which the melting point fell in the range of 49 to 51 °C. `CN(C)[C@@H]1Cc2cccc(O)c2C[C@H]1O` (relative stereo) had a melting point of 168 to 170 °C. Turning to `O=C(NCCO)c1cc2c(Oc3ccc(Cl)cc3)cnc(Cl)c2s1`, the melting point was in the range of 129 to 132 °C. Take `COc1cccc(CN2CCC(N3C(=O)Nc4ccccc4C3c3cccc(O)c3)CC2)c1` (stereo not drawn): the melting point was greater than 250 °C. As for `Cc1cn2ccccc2c1[N+](=O)[O-]`, the melting point was 137 to 139 °C.

In turn, `COc1ccc2c3c1OC(c1ccccc1)N3C(=O)C1CCCN1C2=O` (stereo not drawn) had a melting point of 157 to 160 °C. `OCCCn1c(C2CCCCC2)nc2ccc(Cl)cc21` displayed a melting point of 120 °C.

With `Cn1ccc2c3c(c(C(=O)OCc4ccccc4)cc21)C(=O)NC3=O`, the melting point is 186 to 189 °C.
